Experiment [1] relates to BT: Peripheral blood mononuclear cells, B cells (α-IgM, TCR ligands). The experiment is described as follows: BioMAP BT system. The class given is cell-based, human. The settings on record: BT system; at the compound's active concentration. How it is done:
(§1) Anti-inflammatory phenotypic profiling was conducted across 12 human primary cell-based systems as part of DiscoverX's BioMAP Diversity Plus program. These systems are designed to model complex human tissue and disease biology of the vasculature, skin, lung, and inflammatory tissues. Quantitative measurements of biomarker activities across this broad panel were used to assess each biochemical's anti-inflammatory activity at four concentrations ([…] and 2.2, 6.7 and 20 μM). […] Protein-based biomarkers from activated cell systems were measured and compared with controls. Biomarker activities were annotated when 2 or more consecutive concentrations change in the same directions relative to vehicle controls, were outside of the significance envelope and had at least one concentration with an effect size>20% (log 10 ratio)>0.1.
(§2) In the first system, human primary peripheral blood mononuclear cells and venular endothelial cells were stimulated with lipopolysaccharide (LPS) and incubated with the test agent, drug control, or vehicle control for 24 hours. In the second system, peripheral blood mononuclear cells and B cells were stimulated with α-IgM and T cell receptor ligands and incubated with the test agent, drug control, or vehicle control for 24 hours. In both systems, a negative, non-stimulated system was also included.
(§3) The Diversity PLUS panel allows test agent characterization in an unbiased way across a broad set of systems modeling various human disease states. These systems are designed to model complex human tissue and disease biology of the vasculature, skin, lung, and inflammatory tissues. Quantitative measurements of 148 biomarker activities across this broad panel, along with comparative analysis of biological activities from known bioactive agents, were used to predict and compare the efficacy and function of each selected compound at selected concentrations (6.7 and/or 20 μM).
(§4) BioMAP systems are constructed with one or more primary cell types from healthy human donors, with stimuli (such as cytokines or growth factors) added to capture relevant signaling networks that naturally occur in human tissue or pathological conditions. Vascular biology is modeled in both a Th1 (3C system) and a Th2 (4H system) inflammatory environment, as well as in a Th1 inflammatory state specific to arterial smooth muscle cells (CASM3C system). Additional systems recapitulate aspects of the systemic immune response including monocyte-driven Th1 inflammation (LPS system) or T cell stimulation (SAg system), chronic Th1 inflammation driven by macrophage activation (lMphg system) and the T cell-dependent activation of B cells that occurs in germinal centers (BT system). The BE3C system (Th1) and the BF4T system (Th2) represent airway inflammation of the lung, while the MyoF system models myofibroblast-lung tissue remodeling. Lastly, skin biology is addressed in the KF3CT system modeling Th1 cutaneous inflammation and the HDF3CGF system modeling wound healing.
(§5) Each test agent generates a signature BioMAP profile that is created from the changes in protein biomarker readouts within individual system environments. Biomarker readouts (7-17 per system) are selected for therapeutic and biological relevance, are predictive for disease outcomes or specific drug effects and are validated using agents with known mechanism of action (MoA). Each readout is measured quantitatively by immune-based methods that detect protein (e.g., ELISA) or functional assays that measure proliferation and viability. BioMAP readouts are diverse and include cell surface receptors, cytokines, chemokines, matrix molecules and enzymes. In total, the Diversity PLUS panel contains 148 biomarker readouts that capture biological changes that occur within the physiological context of the particular BioMAP system. […]

The subject of experiment [2] is human primary cell-based systems. The experiment in a line: BioMAP Diversity PLUS panel, phenotypic profiling. Conditions: tested at 6.7 and/or 20 μM; 24 to 72 hours. How it is done:
Anti-inflammatory phenotypic profiling was conducted across 12 human primary cell-based systems as part of DiscoverX's BioMAP Diversity Plus program. These systems are designed to model complex human tissue and disease biology of the vasculature, skin, lung, and inflammatory tissues. Quantitative measurements of biomarker activities across this broad panel were used to assess each biochemical's anti-inflammatory activity at four concentrations ([…] and 2.2, 6.7 and 20 μM). […] Protein-based biomarkers from activated cell systems were measured and compared with controls.
as §3, §4
(§6) Each test agent generates a signature BioMAP profile that is created from the changes in protein biomarker readouts within individual system environments. Biomarker readouts (7-17 per system) are selected for therapeutic and biological relevance, are predictive for disease outcomes or specific drug effects and are validated using agents with known mechanism of action (MoA). Each readout is measured quantitatively by immune-based methods that detect protein (e.g., ELISA) or functional assays that measure proliferation and viability. BioMAP readouts are diverse and include cell surface receptors, cytokines, chemokines, matrix molecules and enzymes. In total, the Diversity PLUS panel contains 148 biomarker readouts that capture biological changes that occur within the physiological context of the particular BioMAP system.
(§7) Activated BioMAP systems were incubated with each compound for 24 to 72 hours. Protein-based biomarkers from activated cell systems were measured and compared with non-treated control systems.

Experiment [3] has as its system LPS: Venular endothelial cells, peripheral blood mononuclear cells (TLR4 ligand). The experiment in a line: BioMAP LPS system. Conditions: at the compound's active concentration. The class given is cell-based, human. As for the experimental part:
as §1, §2, §3, §4, §5

Experiment [4] concerns 4H: Venular endothelial cells (IL-4, histamine). The experiment in a line: BioMAP 4H system. The class given is cell-based, human. Conditions: at the compound's active concentration.
From the text: as §3
BioMAP systems are constructed with one or more primary cell types from healthy human donors, with stimuli (such as cytokines or growth factors) added to capture relevant signaling networks that naturally occur in human tissue or pathological conditions. Vascular biology is modeled in both a Th1 (3C system) and a Th2 (4H system) inflammatory environment, as well as in a Th1 inflammatory state specific to arterial smooth muscle cells (CASM3C system). […]
as §5, §7

Experiment [5] has as its system CASM3C: Coronary artery smooth muscle cells (IL-1β, TNFα, IFNγ). The experiment is described as follows: BioMAP CASM3C system. The class given is cell-based, human. The settings on record: CASM3C system; at the compound's active concentration.
From the text: The Diversity PLUS panel allows test agent characterization in an unbiased way across a broad set of systems modeling various human disease states. These systems are designed to model complex human tissue and disease biology of the vasculature, skin, lung, and inflammatory tissues.
as §4
as §6, with “enzymes.” for “enzymes. In total, the Diversity PLUS panel contains 148 biomarker readouts that capture biological changes that occur within the physiological context of the particular BioMAP system.”
as §7

One compound from patent publication US12427179B2, “Compositions and methods for diagnosis and treatment of neurodegenerative diseases” (EPITRACKER, INC., priority 2019, dated 2025) can be followed below.

On to `O=C(O)CNC(=O)c1ccccc1` [hippurate], for which the “Secreted IgG, log10 reduction vs nontreated controls” value in experiment [1] was −0.21 log10. Besides, in experiment [2], the Active concentrations lay within 6.7 to 20 µM. In experiment [3], the “CD40, log10 reduction vs nontreated controls” value was −0.11 log10. In experiment [4], the “P-selectin, log10 reduction vs nontreated controls” value is −0.10 log10. In addition, the “Thrombomodulin, log10 reduction vs nontreated controls” value in experiment [5] is −0.16 log10.
